The source of these data is patent publication US8470804B2, “11a, 12-derivatives of tetracycline compounds” (Paratek Pharmaceuticals, Inc., priority 2005, dated 2013).

The structures appear in SMILES notation.

For one experiment, the system named is common bacteria. The experiment in a line: In vitro minimum inhibitory concentration (MIC) assay. Particulars: broth microdilution in CAMHB, 35° C., approximately 18 hours. Type of experiment: cell-based, E. coli, S. aureus, Enterococcus sp. The method, then:
The following assay was used to determine the efficacy of tetracycline compounds against common bacteria. 2 mg of each compound were dissolved in 100 μl of DMSO. […] The tetracycline compound solutions were diluted to 50 μl, volumes, with a test compound concentration of 0.098 μg/ml. Optical density (OD) determinations were made from fresh log-phase broth cultures of the test strains. Dilutions were made to achieve a final cell density of 1×10^6 CFU/ml. At OD=1, cell densities for different genera were approximately: [table] 50 μl of the cell suspensions were added to each well of microtiter plates. The final cell density should be approximately 5×10^5 CFU/ml. These plates are incubated at 35° C. in an ambient air incubator for approximately 18 hours. The plates are read with a microplate reader and are visually inspected when necessary. The MIC was defined as the lowest concentration of the tetracycline compound that inhibits growth.
(In general: Broth dilution looks for growth in wells or tubes with falling amounts of substance.)

The subject of the next experiment is EAE induced mice. Description: In vivo experimental autoimmune encephalomyelitis (EAE) murine model. As to conditions: IP injections 50 mg/kg each day from day 10 (onset of disease); minocycline control at same dose. On the set-up: species or system C57BL/6 female mice. The method, then:
In this example, a mouse model was used to determine the ability of the tetracycline compounds to treat demyelination related diseases. Other models which can be used are described in Brundula V. et al. Brain 2002 June; 125 (Pt 6): 1297-308 and Popovic N. et al. Ann Neural. 2002 February; 51(2):215-23.
To induce EAE, 6 week old C57BL/6 female mice were injected subcutaneously with 200 ug of myelin oligodendrocyte glycoprotein peptide (MOG 35-55) emulsified in 200 μL of complete Freund's adjuvant containing an additional 4 mg/mL of heat killed M. tuberculosis. Mice were additionally injected intravenously (tail vein) with 150 ng of lyophilized pertussis toxin resuspended in 150 μL PBS at time 0 and again 48 hours later. In this model, the mice developed progressive posterior to anterior advancing paralysis with symptoms first appearing at 10-12 days and progressing to severe paralysis by approximately 21 days. Severity of EAE was scored daily according to the following criteria: 0, healthy; 1, limp tail; 2, partial paralysis of one or two hind limbs; 3, complete paralysis of the hind limbs; 4, complete hind limb paralysis and forelimb paraparesis; 5, moribund. All test experiments included control groups of EAE induced mice treated with vehicle only or treated with minocycline, with 10 mice per group. […]

As to `C[C@H]1c2ccc(N)c(O)c2C(=O)C2=C[C@]3(O)C(=O)C(C(N)=O)=C(O)[C@@H](N(C)C)[C@@H]3[C@@H](O)[C@@H]21` [9-Amino-12-dehydrodoxycline, (4S,4aR,5S,5aR,6R,12aR)-9-Amino-4-dimethylamino-3,5,10,12a-tetrahydroxy-6-methyl-1,11-dioxo-1,4,4a,5,5a,6,11,12a-octahydro-naphthacene-2-carboxylic acid amide], the “antibacterial activity (MIC)” value in the experiment with common bacteria was “low antibacterial activity”.
The same measure, in the same setting: for `C[C@H]1c2ccc(N(C)C)c(O)c2C(=O)C2=C[C@]3(O)C(=O)C(C(N)=O)=C(O)[C@@H](N(C)C)[C@@H]3[C@@H](O)[C@@H]21` [9-bis-dimethylamino-12-dehydrodoxycline, (4S,4aR,5S,5aR,6R,12aR)-4,9-Bis-dimethylamino-3,5,10,12a-tetrahydroxy-6-methyl-1,11-dioxo-1,4,4a,5,5a,6,11,12a-octahydro-naphthacene-2-carboxylic acid amide] the value was “low antibacterial activity”.
With `C[C@H]1c2cccc(O)c2C(=O)C2=C[C@]3(O)C(=O)C(C(N)=O)=C(O)[C@@H](N(C)C)[C@@H]3[C@@H](O)[C@@H]21` [12-dehydrodoxycycline, (4S,4aR,5S,5aR,6R,12aR)-4-Dimethylamino-3,5,10,12a-tetrahydroxy-6-methyl-1,11-dioxo-1,4,4a,5,5a,6,11,12a-octahydro-naphthacene-2-carboxylic acid amide], the “activity in EAE model (severity of EAE scored daily 0-5) compared with minocycline” value in the experiment with EAE induced mice is “activity similar to or better than minocycline”. Also, the “antibacterial activity (MIC)” value in the experiment with common bacteria was “low antibacterial activity”.
For the compound `CNC1C2C(=O)c3c(O)cccc3[C@H](C)[C@H]2[C@H](O)[C@H]2[C@H](N(C)C)C(O)=C(C(N)=O)C(=O)[C@@]12O` (stereo partly drawn) [12-methylamino-12-dehydrodoxycycline, (4S,4aR,5S,5aR,6R,12aS)-4-Dimethylamino-3,5,10,12a-tetrahydroxy-6-methyl-12-methylamino-1,11-dioxo-1,4,4a,5,5a,6,11,11a,12,12a-decahydro-naphthacene-2-carboxylic acid amide], in the experiment with EAE induced mice, the “activity in EAE model (severity of EAE scored daily 0-5) compared with minocycline” value is “activity similar to or better than minocycline”.
